Laboratory results taken from patent publication US7569537B2, “Peptide antagonists for inhibiting heat shock protein (Hsp 16.3) of Mycobacterium tuberculosis” (priority 2004, dated 2009).
No end group written: not given here.

Tests used:
[1] = biological target: T1, Hsp16.3 (Mycobacterium tuberculosis, UniProt P9WMK1); assay: NMR (TOCSY) amide proton chemical shifts of peptide free and with Hsp16.3; assay type: binding; conditions: 0.1 mM protein, 2 mM peptide, pH 7.0, 4 °C
Experimental: FIG. 5. Comparison of chemical shifts of amide protons of free peptide (Seq ID 10) (a) and peptide with Hsp16.3 protein (b). Resonance assignments are indicated with a one-letter amino acid code. All NMR spectra were taken in a Bruker DRX-500 spectrometer equipped with a Z-field gradient probe. All measurements were done in high precision 5-mm NMR tubes in 20 mM sodium phosphate buffer, pH 7.0, containing 250 mM NaCl in 90% H2O and 10% D2O at 4° C. TOCSY spectra were measured using standard pulse sequences in the Bruker pulse library using WATERGATE water suppression method. Standard Bruker software (Xwin-NMR version 1.3) was used to acquire and process the NMR data. The NMR samples were adjusted to a protein concentration of 0.1 mM and a 20-fold ligand excess (2 mM) over binding sites was used throughout the studies.
An important aspect of inhibitor development procedures is to understand the nature of interactions between the inhibitor and its target. […] As a part of this disclosure it is shown that histidine residues in one of the two peptide inhibitors namely Seq ID 10 interact with Hsp16.3 as determined by NMR.
All NMR spectra were taken in a Bruker DRX-500 NMR spectrometer equipped with a Z-field gradient probe. […] TOCSY spectra were measured using standard pulse sequences in the Bruker pulse library using WATERGATE water suppression method. […]

[2] = biological target: T1, Hsp16.3; assay: ADH heat aggregation assay for inhibition of Hsp16.3 chaperon activity; assay type: biochemical
Experimental: FIG. 2. […] Aggregation assays were performed by heating 5 μM Alcohol dehydrogenase (ADH) to 50° C. directly in a spectrophotometer using a thermostated cuvette holder in a total reaction volume of 500 μl. Optical density was monitored at 360 nm for 1200 seconds and readings were taken at every 100 seconds interval. […] Then the same experiment was performed in the presence of increasing concentrations of the Hsp16.3 binding peptide Seq IDs 10. Aggregation of ADH in the absence of Hsp 16.3 (black triangle). Aggregation in the presence of Hsp 16.3 (black circle). The same experiment when performed in the presence of increasing concentrations of the Hsp 16.3 binding peptide (Seq ID 10) 25 μM (white square), 50 μM (black square), 100 μM (white triangle). Only peptide control (ADH+100 μM peptide) (white circle).
The binding of a peptide need not necessarily result in inhibition. Inhibition will happen only if binding leads to significant changes in the active site. […] A part of the invention is the development of a peptide inhibition assay for Hsp16.3. The method is based on aggregation based assays. The standard assay used for assaying the activity of alpha-crystallin like proteins is to study the protection it confers against heat induced aggregation of proteins, the aggregation activity being measured spectrophotometrically. […] Aggregation of 5 μM ADH at 50° C. can be measured as an apparent optical density at 360 nm using a spectrophotometer equipped with a thermostated cuvette holder in a total reaction volume of 500 μl. The chaperon activity of Hsp16.3 can be determined by mixing ADH with Hsp16.3 at a molar ratio of 5:4 which is equivalent to a ratio of about 12:1 between ADH and Hsp16.3 assuming a nonameric structure of Hsp16.3 as the functional unit (Chang et al., 1996) and aggregation rates again determined spectrophotometrically. […]
A part of the invention is the peptide inhibition assay for Hsp16.3 comprising of heat treating ADH alone, ADH+Hsp16.3 and ADH+Hsp16.3+25, 50 and 100 μM peptide. […] Aggregation of 5 μM ADH at 50° C. was measured as an apparent optical density at 360 nm using Hitachi spectrophotometer equipped with a thermostated cuvette holder in a total reaction volume of 500 μl. The chaperon activity of Hsp16.3 was determined by mixing ADH with Hsp16.3 at a molar ratio of 5:4 and aggregation rates were again determined spectrophotometrically. […]
Aggregation assays were performed by heating 5 μM Alcohol dehydrogenase (ADH) to 50° C. directly in a spectrophotometer using a thermostated cuvette holder in a total reaction volume of 500 μl. Absorbance was monitored at 360 nm (A360) for 1200 seconds and readings were taken at every 100 seconds interval. […] The increase in absorbance indicates aggregation of ADH. […]

[3] = biological target: T2, human alphaB-crystallin (Homo sapiens, UniProt P02511); assay: ADH heat aggregation assay with alphaB-crystallin instead of Hsp16.3; assay type: biochemical; conditions: 25, 50 and 100 μM peptide, ADH:alphaB-crystallin 5:4
T2 construct: made in house
T2 sequence (P02511 1-175): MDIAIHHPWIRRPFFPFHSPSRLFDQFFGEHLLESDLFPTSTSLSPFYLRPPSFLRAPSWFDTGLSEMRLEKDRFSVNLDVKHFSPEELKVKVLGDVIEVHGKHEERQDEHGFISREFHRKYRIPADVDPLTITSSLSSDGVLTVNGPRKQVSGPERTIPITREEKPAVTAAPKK
Experimental: FIG. 3. An example to show the specificity of the inhibitory peptides for Hsp16.3 and not for alphaB-crystallin—a component of human eye lens. A similar assay as described in FIG. 2 was performed using alphaB-crystalline instead of Hsp16.3. The molar ratio between ADH and alphaB-crystallin was maintained 5:4 as in the case of Hsp 16.3. Aggregation in the absence of alphaB-crystallin (black triangle). Aggregation in the presence of alphaB-crystalline (black circle). The same experiment was performed in the presence of increasing concentrations of the Hsp16.3 binding peptide (Seq ID 10) 25 μM (white square), 50 μM (black square), 100 μM (white triangle). Only peptide control (ADH+100 μM peptide) (white circle).
ADH upon being heated to 50° C. aggregates. This aggregation can be completely stopped when Hsp16.3 is added in such a way so as to obtain a molar ratio of ADH to Hsp 16.3 monomer of about 5:4. Incorporation of peptide at a concentration of 100 μM i.e. about 25 fold molar excess leads to significant inhibition of chaperon activity. […] Since it has been shown that Hsp16.3 has functional similarity with human alphaB-crystallin, an eye lens protein (Valdez et al., 2002), therefore the effect of these peptides on human alphaB-crystallin was examined. […] The vector used for expression of this protein was originally generated by Dr. W. C. […]

[4] = biological target: T1, Hsp16.3; conditions: reverse phage ELISA, A405, 30 μg/well Hsp16.3 or BSA

T1 sequence (P9WMK1 whole entry, looked up): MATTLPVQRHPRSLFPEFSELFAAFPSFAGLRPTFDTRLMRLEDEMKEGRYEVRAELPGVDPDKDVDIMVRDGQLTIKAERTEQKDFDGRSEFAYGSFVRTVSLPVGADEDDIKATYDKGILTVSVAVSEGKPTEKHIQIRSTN

Row | Substance | IC50 [2] [µM] | binding of phage clone to Hsp16.3 compared to non-specific control BSA (background binding) [4] | further results
1 | H-KMHATNHGGGS-NH2 [Seq ID 10] | ~50 |  | chemical shift change of peptide amide protons on addition of Hsp16.3 [1]: significant chemical shift occured in both histidines; inhibition of chaperon activity of Hsp16.3 (in words) ([2]; 25, 50 and 100 μM peptide): dose dependent inhibition; effect of peptide alone on aggregation of ADH (control without Hsp16.3) ([2]; ADH + 100 μM peptide, no Hsp16.3): does not influence the aggregation of ADH; inhibition of chaperon activity of alphaB-crystallin (in words) [3]: no inhibition
2 | H-YPHHFKHRHIPIGGGS-NH2 [Seq ID 22] | ~50 |  | 
3 | KMHATNH [Seq ID 9] |  | about three-fold | 
4 | YPHHFKHRHIPI [Seq ID 21] |  | about three-fold | 
